Measurements reported in paper PMC7497641, “Neurotropic activity and safety of methylene-cycloalkylacetate (MCA) derivative 3-(3-allyl-2-methylenecyclohexyl) propanoic acid” (ACS Chemical Neuroscience, 2020).

How the values were obtained:
neurons = assay: Cytotoxicity to neurons; type: cell-based; details: 10 μM
Text: “Off-target” activity refers to all other targets for which a molecule has affinity with the outcome of activation, blockade, or modulation, resulting in a functional effect. In many cases, the off-target activity of the molecule can be sub-clinical and not pose a concern. On the other hand, the off-target activity may result in side effects of the active agent that range from a minor nuisance to a severe adverse event, resulting with drug withdrawal.[33] Therefore, in vitro pharmacological profiling is increasingly being used earlier in the drug discovery process to identify undesirable off-target activity profiles that could hinder or halt the development of a candidate drug.[34] With this background, assessing the specificity of HU-MCA-13 early in its development using highly relevant and predictive functional assays, which allow more informed decisions about its safety, ultimately lead to the development of an effective neurotropic drug. […] Cell death was evaluated by morphological appearance of the cells and release of LDH into the medium, in the absence and presence of different concentrations of synthetic compounds as previously described.[52]

[1] = target: T1, Acetylcholinesterase (AChE) (Homo sapiens, UniProt P22303); assay: SAFETYscan Enzymatic assay; type: biochemical
T1 construct: purchased R&D Systems

[2] = target: Adenosine Receptor A2A (ADORA2A) (Homo sapiens, UniProt P29274); assay: SAFETYscan GPCR Calcium Flux; type: cell-based; details: for MCA-13 Max. Responce: 10 μM
[3] = test system: PGE2 production in PC12 cells; assay: PGE2 production measured by ELISA; details: different concentrations of HU-MCA-13, dose-dependent; 24 h
[4] = test system: PC12 dopaminergic cell cultures; assay: PC12 neurotropic (neurite outgrowth) assay; type: cell-based, rat
[5] = target: Endothelin Receptor Type A (EDNRA) (Homo sapiens, UniProt P25101); assay: SAFETYscan GPCR Calcium Flux; type: cell-based; details: read-out: RC50 (the source's name)
[6] = target: T2, Cannabinoid Receptor 2 (CNR2) (Homo sapiens, UniProt P34972); assay: SAFETYscan GPCR cAMP; type: cell-based
T2 construct: host or cells: cAMP Hunter cell lines

[7] = target: Nuclear Hormone Androgen Receptor (AR) (Homo sapiens, UniProt P10275); assay: SAFETYscan Nuclear Hormone Receptor assay; type: cell-based
[8] = target: T3, Cannabinoid Receptor 1 (CNR1) (Homo sapiens, UniProt P21554); assay: SAFETYscan GPCR cAMP; type: cell-based
T3 construct: host or cells: cAMP Hunter cell lines

[9] = target: T4, Kv11.1, the alpha subunit of a potassium ion channel (hERG) (Homo sapiens, UniProt Q12809); assay: cell-based; details: Blocker
T4 construct: host or cells: unnamed DiscoverX cell line

[10] = target: T5, cAMP-specific 3′,5′-cyclic phospho-diesterase 4D2 (PDE4D2) (Homo sapiens, UniProt Q08499); assay: SAFETYscan Enzymatic assay; type: biochemical; details: Inhibitor
T5 construct: purchased Signal Chem

[11] = Acute (single-dose) oral toxicity, pathology of major organs; type: in vivo; details: 2000 mg/kg orally
Method: Prioritizing compounds with a lower chance of causing toxicity, early in the drug discovery process, would help in the drug development process.[30] With this consideration we conducted acute (single-dose) toxicity study[31] to determine the short-term adverse pathological effects on major mice organs of HU-MCA-13 when administered in mice in a single dose, for a period of 24 h. One group of 5 mice received HU-MCA-13 orally at a dose of 2000 mg/kg, dissolved in a nano-emulsifying drug delivery system[32] in a bolus of 0.4 mL/mouse. After 24 h exposure, the animals were sacrificed, and organs were harvest for pathology analyses. […] This finding was not related to the tested compound and was considered as an accidental finding. This information on the lack of acute toxicity of HU-MCA-13 may predict the safety of this compound in future therapeutic evaluation.
C57Bl/6 mice, 8 weeks old, obtained from Envigo animal breeding center were used in the study. All experiments were approved by the Institutional Animal Care and Use Committee and performed according to OECD guidelines for testing of chemicals.[53] Organs were harvested from mice that were administered with MCA-13 for the detection of possible toxicological lesions in the framework of a safety assessment. […]

Cyclooxygenase 2 (COX 2) = target: T6, Cyclooxygenase 2 (COX 2) (Homo sapiens, UniProt P35354); assay: biochemical; details: Inhibitor, Enzymatic
T6 construct: purchased BPS Bioscience

[12] = target: Nuclear Hormone Glucocorticoid Receptor (GR) (Homo sapiens, UniProt P04150); assay: SAFETYscan Nuclear Hormone Receptor assay; type: cell-based; details: read-out: RC50 (the source's name)
[13] = read-out: RC50 (the source's name)
[14] = 10 μM, read-out: MCA-13 Max. Responce

Adenosine Receptor A2A (ADORA2A), sequence (P29274 whole entry): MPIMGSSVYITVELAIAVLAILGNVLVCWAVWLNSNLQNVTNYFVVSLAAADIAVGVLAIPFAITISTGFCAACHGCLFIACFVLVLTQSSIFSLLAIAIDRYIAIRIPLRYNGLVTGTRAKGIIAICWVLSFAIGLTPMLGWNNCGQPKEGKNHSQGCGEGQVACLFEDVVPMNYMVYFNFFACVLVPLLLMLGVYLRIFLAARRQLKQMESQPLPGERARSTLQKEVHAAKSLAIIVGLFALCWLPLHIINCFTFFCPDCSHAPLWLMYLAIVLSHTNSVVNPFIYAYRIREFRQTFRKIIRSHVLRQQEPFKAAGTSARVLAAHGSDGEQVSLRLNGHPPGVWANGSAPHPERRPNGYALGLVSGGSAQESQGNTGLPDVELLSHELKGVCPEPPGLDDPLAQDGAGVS
T5 sequence (Q08499 303-809): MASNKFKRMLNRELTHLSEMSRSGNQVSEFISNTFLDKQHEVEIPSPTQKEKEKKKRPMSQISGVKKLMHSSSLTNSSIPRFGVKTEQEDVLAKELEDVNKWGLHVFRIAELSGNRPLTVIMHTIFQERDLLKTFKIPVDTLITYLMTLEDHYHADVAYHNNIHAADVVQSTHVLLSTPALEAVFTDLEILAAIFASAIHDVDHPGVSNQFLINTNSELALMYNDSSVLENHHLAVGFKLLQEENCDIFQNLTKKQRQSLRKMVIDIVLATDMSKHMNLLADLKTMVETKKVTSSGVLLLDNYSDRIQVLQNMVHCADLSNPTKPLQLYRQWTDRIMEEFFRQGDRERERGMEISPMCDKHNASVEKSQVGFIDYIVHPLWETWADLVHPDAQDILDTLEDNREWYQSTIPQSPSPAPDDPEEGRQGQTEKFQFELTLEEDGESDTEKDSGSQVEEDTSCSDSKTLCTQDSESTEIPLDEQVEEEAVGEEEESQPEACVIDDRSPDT
T2 sequence (P34972 whole entry): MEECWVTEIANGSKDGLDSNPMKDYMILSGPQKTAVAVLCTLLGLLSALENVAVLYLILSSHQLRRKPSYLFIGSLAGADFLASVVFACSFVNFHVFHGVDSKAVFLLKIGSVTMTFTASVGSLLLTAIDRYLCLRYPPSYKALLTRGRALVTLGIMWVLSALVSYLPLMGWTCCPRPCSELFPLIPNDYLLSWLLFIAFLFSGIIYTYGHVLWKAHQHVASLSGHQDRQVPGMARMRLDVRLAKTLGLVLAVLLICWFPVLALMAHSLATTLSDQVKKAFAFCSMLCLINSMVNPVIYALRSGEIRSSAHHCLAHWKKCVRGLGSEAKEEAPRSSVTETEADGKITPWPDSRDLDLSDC
Nuclear Hormone Glucocorticoid Receptor (GR), sequence (P04150 whole entry): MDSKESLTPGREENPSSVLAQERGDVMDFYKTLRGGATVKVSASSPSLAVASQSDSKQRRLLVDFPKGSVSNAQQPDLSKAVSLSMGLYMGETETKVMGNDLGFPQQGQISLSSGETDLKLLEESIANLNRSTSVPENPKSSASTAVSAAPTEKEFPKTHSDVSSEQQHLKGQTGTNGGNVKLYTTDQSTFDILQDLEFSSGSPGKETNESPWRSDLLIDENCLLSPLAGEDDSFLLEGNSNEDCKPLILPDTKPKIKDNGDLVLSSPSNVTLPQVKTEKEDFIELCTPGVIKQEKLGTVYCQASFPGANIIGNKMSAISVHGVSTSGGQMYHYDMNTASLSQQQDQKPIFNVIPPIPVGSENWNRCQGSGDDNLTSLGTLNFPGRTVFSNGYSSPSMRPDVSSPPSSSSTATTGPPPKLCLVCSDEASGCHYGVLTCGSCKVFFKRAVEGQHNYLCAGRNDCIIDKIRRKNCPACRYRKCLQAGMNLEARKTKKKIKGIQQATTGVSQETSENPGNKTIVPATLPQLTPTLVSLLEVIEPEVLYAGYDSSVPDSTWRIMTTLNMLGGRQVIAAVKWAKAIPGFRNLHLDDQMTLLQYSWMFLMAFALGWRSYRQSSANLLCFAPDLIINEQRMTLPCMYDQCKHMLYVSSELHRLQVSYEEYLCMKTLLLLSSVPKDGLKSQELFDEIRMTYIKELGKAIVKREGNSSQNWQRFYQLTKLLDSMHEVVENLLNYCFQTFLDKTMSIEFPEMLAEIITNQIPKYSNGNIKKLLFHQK
T6 sequence (P35354 18-604): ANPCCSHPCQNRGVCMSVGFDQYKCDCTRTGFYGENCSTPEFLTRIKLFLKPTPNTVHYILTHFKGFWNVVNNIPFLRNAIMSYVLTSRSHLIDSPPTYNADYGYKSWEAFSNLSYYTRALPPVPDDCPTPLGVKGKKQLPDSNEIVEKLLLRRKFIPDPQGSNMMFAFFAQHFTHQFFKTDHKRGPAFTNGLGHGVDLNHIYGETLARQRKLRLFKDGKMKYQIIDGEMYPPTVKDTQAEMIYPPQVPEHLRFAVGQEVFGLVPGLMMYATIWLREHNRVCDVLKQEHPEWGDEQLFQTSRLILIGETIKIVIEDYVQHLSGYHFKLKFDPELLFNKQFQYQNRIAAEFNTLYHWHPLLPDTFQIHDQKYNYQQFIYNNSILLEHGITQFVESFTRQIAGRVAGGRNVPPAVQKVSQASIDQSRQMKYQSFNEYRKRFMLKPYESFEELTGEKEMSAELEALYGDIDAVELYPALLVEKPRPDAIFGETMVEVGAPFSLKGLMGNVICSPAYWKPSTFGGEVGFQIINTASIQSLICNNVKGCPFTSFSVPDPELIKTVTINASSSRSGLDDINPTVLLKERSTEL
Nuclear Hormone Androgen Receptor (AR), sequence (P10275 whole entry): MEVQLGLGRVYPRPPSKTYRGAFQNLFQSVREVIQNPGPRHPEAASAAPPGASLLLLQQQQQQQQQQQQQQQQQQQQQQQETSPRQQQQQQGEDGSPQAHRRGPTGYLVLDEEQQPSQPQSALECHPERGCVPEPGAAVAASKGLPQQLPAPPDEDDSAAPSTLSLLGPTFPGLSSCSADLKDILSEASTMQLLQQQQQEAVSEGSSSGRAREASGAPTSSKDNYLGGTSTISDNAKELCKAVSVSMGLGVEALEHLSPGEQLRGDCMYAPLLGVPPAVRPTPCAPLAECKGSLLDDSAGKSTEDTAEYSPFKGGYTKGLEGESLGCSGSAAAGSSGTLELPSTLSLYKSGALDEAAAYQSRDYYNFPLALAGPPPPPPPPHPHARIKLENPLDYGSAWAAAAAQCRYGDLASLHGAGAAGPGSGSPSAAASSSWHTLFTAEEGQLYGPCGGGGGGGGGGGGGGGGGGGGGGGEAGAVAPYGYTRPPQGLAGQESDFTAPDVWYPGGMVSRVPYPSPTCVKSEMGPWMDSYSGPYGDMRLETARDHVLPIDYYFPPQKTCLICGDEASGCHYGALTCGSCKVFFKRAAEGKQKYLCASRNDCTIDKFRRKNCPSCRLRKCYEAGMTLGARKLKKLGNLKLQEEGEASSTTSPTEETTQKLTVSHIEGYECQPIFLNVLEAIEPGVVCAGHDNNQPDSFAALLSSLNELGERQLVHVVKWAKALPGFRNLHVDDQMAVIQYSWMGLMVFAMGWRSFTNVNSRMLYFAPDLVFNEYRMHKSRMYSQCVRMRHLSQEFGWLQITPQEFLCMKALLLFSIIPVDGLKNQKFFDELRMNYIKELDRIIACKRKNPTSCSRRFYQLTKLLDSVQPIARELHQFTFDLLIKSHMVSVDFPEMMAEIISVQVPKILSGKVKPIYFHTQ
Endothelin Receptor Type A (EDNRA), sequence (P25101 21-427): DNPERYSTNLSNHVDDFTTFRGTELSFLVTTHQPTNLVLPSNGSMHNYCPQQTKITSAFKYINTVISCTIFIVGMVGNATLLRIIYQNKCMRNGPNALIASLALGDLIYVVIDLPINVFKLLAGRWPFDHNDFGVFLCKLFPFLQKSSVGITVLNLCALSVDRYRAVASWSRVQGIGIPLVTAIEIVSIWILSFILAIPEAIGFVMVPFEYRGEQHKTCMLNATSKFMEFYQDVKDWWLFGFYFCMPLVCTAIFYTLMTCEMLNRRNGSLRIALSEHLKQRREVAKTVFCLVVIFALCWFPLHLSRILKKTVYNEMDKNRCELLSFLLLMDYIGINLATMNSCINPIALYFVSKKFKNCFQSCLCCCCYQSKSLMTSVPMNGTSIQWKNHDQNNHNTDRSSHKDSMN
T3 sequence (P21554 whole entry): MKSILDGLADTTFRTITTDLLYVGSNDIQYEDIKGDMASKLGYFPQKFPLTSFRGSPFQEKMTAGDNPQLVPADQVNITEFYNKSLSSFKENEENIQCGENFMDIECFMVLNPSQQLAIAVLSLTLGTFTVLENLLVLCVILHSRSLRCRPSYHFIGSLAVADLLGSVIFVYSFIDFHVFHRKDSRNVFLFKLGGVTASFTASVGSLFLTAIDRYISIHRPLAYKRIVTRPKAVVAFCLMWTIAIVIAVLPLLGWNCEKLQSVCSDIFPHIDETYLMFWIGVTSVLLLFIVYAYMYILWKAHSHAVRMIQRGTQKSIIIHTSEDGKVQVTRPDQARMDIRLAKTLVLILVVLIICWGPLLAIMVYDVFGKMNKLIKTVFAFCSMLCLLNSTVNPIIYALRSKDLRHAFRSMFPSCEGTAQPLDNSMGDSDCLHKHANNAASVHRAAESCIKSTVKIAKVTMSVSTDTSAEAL
T1 sequence (P22303 32-614): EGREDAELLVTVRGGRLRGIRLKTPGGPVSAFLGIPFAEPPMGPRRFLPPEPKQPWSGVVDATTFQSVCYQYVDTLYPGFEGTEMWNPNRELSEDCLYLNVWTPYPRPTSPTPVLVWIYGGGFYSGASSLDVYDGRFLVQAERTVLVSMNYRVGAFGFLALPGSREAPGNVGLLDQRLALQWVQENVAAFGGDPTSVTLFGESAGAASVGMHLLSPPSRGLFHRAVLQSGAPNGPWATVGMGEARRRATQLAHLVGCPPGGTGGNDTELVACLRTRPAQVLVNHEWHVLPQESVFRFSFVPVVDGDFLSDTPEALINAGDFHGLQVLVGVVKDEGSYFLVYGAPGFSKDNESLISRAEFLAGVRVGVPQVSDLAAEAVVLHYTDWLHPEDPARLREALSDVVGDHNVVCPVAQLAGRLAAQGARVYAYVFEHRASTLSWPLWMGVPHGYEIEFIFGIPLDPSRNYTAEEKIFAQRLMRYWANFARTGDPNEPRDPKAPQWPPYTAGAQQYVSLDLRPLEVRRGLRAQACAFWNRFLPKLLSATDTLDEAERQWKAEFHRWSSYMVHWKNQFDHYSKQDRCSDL

SMILES: C=CCC1CCCC(CCC(=O)O)C1=C (stereo not drawn) [HU-MCA-13, 3-(3-allyl-2-methylenecyclohexyl)propanoic acid]
- toxicity to neurons (neurons): not toxic
- IC50 [1]: > 10 µM
- inhibition at 10 µM ([1]; 10 μM, Inhibitor, Enzymatic, read-out: MCA-13 Max. Responce): 4.27%
- MCA-13 Max. Responce ([2]; Agonist): 0%
- MCA-13 Max. Responce ([2]; Antagonist): 4.09%
- EC50 ([2]; Agonist, read-out: RC50 (the source's name)): > 10 µM
- IC50 ([2]; Antagonist, read-out: RC50 (the source's name)): > 10 µM
- increase of PGE2 production over control, untreated cultures [3]: 3–6 fold
- neurotropic effect in the presence of Trk A inhibitor K252a ([4]; 250 nM K252a, 10 μM HU-MCA-13): did not abolished
- β tubulin III expression in cell bodies and neurite outgrowths (immunostaining) ([4]; 5 μM, 7 days): expressed β tubulin III
- neurite outgrowth ([4]; HU-MCA-13 1 μM): 10–15%
- neurite outgrowth, Df ([4]; HU-MCA-13 1 μM): 0.04
- EC50 ([5]; Agonist): > 10 µM
- IC50 ([5]; Antagonist): > 10 µM
- EC50 [6]: > 10 µM
- IC50 [6]: > 10 µM
- EC50 [7]: > 10 µM
- IC50 [7]: > 10 µM
- EC50 [8]: > 10 µM
- IC50 [8]: > 10 µM
- MCA-13 Max. Responce ([9]; 10 μM): 0%
- IC50 [9, 13]: > 10 µM
- inhibition at 10 µM [10, 14]: 0%
- IC50 [10, 13]: > 10 µM
- cytotoxic lesions in all organs (histopathology) ([11]; single dose in nano-emulsifying drug delivery system, 24 h): no cytotoxic lesions were found
- finding in last part of colon, rectum and adjacent anal unhaired skin ([11]; in three animals, considered accidental, not related to the tested compound): severe purulent, necrotizing inflammation
- inhibition at 10 µM (Cyclooxygenase 2 (COX 2); [14]): 7.99%
- IC50 (Cyclooxygenase 2 (COX 2); [13]): > 10 µM
- EC50 ([12]; Agonist): > 10 µM
- IC50 ([12]; Antagonist): > 10 µM
